Results as given in patent US20190047966A1, “NOVEL COMPOUND AND PHARMACOLOGICALLY ACCEPTABLE SALT THEREOF” (MEIJI SEIKA PHARMA CO., LTD., priority 2016, published 2019).
Where a name gives a salt, the structure may show the parent alone.

Experiments:
[1] = target: human histamine H1 receptor (Homo sapiens, UniProt P35367); assay: Evaluation of Human H1 Receptor Affinity ([3H]pyrilamine binding); set-up: purchased PerkinElmer Inc; host or cells: CHO-K1; settings: inhibition constant Ki, CHO-K1 membrane preparation
Chain of human histamine H1 receptor (P35367 whole entry): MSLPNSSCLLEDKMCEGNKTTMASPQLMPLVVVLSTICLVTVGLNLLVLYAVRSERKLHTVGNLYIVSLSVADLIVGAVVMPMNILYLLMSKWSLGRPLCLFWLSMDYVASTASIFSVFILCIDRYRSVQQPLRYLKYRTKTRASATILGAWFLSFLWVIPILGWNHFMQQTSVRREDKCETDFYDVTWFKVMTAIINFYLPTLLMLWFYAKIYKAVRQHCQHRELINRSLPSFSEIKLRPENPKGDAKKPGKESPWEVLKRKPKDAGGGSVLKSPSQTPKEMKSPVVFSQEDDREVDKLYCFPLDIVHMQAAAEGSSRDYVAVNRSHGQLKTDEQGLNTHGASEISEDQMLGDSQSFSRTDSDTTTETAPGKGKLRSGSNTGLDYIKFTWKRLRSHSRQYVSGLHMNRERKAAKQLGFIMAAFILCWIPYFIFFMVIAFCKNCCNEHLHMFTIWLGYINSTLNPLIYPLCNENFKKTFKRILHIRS
Description: Test Example 1: Evaluation of Human H1 Receptor Affinity
Membrane preparation from recombinant CHO-K1 cell expressing the human histamine H1 receptor (PerkinElmer Inc.), radiolabeled ligand 1.2 nM [^3H]pyrilamine (PerkinElmer Inc.), and test compounds dissolved in DMSO were reacted at 25° C. for 3 hours in a buffering solution containing 50 mM tris-hydrochloric acid, pH 7.4, and 5 mM magnesium chloride on a 96 well plate, followed by filtration using a GF/B filter (PerkinElmer Inc.) pretreated with 0.3% polyethylenimine. The residue was washed four times with a buffering solution of 50 mM tris-hydrochloric acid, pH 7.4. Thereafter, a scintillation cocktail (MicroScint 20: PerkinElmer Inc.) was added to the GF/B filter, and the radioactivity of each well was measured using a liquid scintillation counter for 96-well (TopCount: PerkinElmer Inc.). The non-specific binding was evaluated in the presence of 1.0 μM pyrilamine. The inhibition constant Ki was calculated from the 50% inhibitory concentration (IC50 value) obtained in each test and the Kd value (1.1 nM) unique to this assay system, according to the Cheng-Prusoff equation.

[2] = target: T1, human histamine H4 receptor (Homo sapiens, UniProt Q9H3N8); assay: Evaluation of Human H4 Receptor Affinity ([3H]histamine binding); settings: inhibition constant Ki, CHO-K1 membrane preparation, read-out: Evaluation of H4 Receptor Affinity
T1 construct: purchased PerkinElmer Inc; host or cells: CHO-K1
T1 sequence (Q9H3N8 whole entry): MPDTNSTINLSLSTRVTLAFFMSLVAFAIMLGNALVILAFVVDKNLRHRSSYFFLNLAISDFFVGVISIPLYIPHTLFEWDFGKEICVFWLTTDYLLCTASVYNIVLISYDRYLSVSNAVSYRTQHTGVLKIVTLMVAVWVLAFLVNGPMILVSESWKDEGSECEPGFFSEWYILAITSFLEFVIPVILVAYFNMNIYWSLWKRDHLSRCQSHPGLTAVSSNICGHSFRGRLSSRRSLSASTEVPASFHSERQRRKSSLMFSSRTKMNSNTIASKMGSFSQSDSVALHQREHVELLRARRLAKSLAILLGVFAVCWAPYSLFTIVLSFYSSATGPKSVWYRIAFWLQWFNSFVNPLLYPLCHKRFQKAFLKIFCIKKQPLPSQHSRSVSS
Description: Test Example 2: Evaluation of Human H4 Receptor Affinity
Membrane preparation from recombinant CHO-K1 cell expressing the human histamine H4 receptor (PerkinElmer Inc.), radiolabeled ligand 8.2 nM [^3H]histamine (PerkinElmer Inc.), and compounds dissolved in DMSO were reacted at 25° C. for 90 minutes in a buffering solution containing 50 mM tris-hydrochloric acid, pH 7.4, and 1.25 mM EDTA on a 96 well plate, followed by filtration using a GF/B filter (PerkinElmer Inc.) pretreated with 0.3% polyethylenimine. The residue was washed four times with a buffering solution of 50 mM tris-hydrochloric acid, pH 7.4. Thereafter, a scintillation cocktail (MicroScint 20: PerkinElmer Inc.) was added to the GF/B filter, and the radioactivity of each well was measured using a liquid scintillation counter for 96-well (TopCount: PerkinElmer Inc.). The non-specific binding was evaluated in the presence of 1.0 μM histamine. The inhibition constant Ki was calculated from the 50% inhibitory concentration (IC50 value) obtained in each test and the Kd value (5.7 nM) unique to this assay system, according to the Cheng-Prusoff equation.

| SMILES | Ki [1] | Ki [2] |
| --- | --- | --- |
| Nc1nc2c(c(N3CCN(CCOC4CC5C(C4)C5C(=O)O)CC3)n1)CCc1cc(OCc3ccc(OC(F)(F)F)cc3)ccc1-2 (mixture of isomers) [Example 35, 3-(2-(4-(2-amino-8-((4-(trifluoromethoxy)benzyl)oxy)-5,6-dihydrobenzo[h]quinazolin-4-yl)piperazin-1-yl)ethoxy)bicyclo[3.1.0]hexane-6-carboxylic acid] | < 100 nM | < 100 nM |
| COC(=O)[C@@H]1CC[C@H](COCCN2CCN(c3nc(N)nc4c3CCc3cc(OCc5ccc(Cl)cc5)ccc3-4)CC2)C1 (relative stereo) [153(a), methyl cis-3-((2-(4-(2-amino-8-((4-chlorobenzyl)oxy)-5,6-dihydrobenzo[h]quinazolin-4-yl)piperazin-1-yl)ethoxy)methyl)cyclopentane-l-carboxylate] | < 100 nM | < 100 nM |
| Nc1nc2c(c(N3CCN(CCOC[C@H]4CC[C@@H](C(=O)O)C4)CC3)n1)CCc1cc(OCc3ccc(Cl)cc3)ccc1-2 (relative stereo) [153(b), cis-3-((2-(4-(2-amino-8-((4-chlorobenzyl)oxy)-5,6-dihydrobenzo[h]quinazolin-4-yl)piperazin-1-yl)ethoxy)methyl)cyclopentane-l-carboxylic acid] | < 100 nM | < 100 nM |
| Nc1nc2c(c(N3CCN(CCOC[C@H]4CC[C@@H](C(=O)O)C4)CC3)n1)CCc1cc(OCc3ccc(OC(F)(F)F)cc3)ccc1-2 (relative stereo) [Example 155] | < 100 nM | < 100 nM |
| Nc1nc2c(c(N3CCN(CCOC[C@@H]4CC[C@H](C(=O)O)O4)CC3)n1)CCc1cc(OCc3ccc(Cl)cc3)ccc1-2 (relative stereo) [Example 171, cis-5-((2-(4-(2-amino-8-((4-chlorobenzyl)oxy)-5,6-dihydrobenzo[h]quinazolin-4-yl)piperazin-1-yl)ethoxy)methyl)tetrahydrofuran-2-carboxylic acid] | < 100 nM | 100 to 500 nM |
| Nc1nc2c(c(N3CCN(CCOC[C@H]4C[C@@H](C(=O)O)O4)CC3)n1)CCc1cc(OCc3ccc(OC(F)(F)F)cc3)ccc1-2 (relative stereo) [Example 176] | < 100 nM | 100 to 500 nM |
| Nc1nc2c(c(N3CCN(CCOC[C@H]4C[C@H](C(=O)O)O4)CC3)n1)CCc1cc(OCc3ccc(OC(F)(F)F)cc3)ccc1-2 (relative stereo) [Example 177, trans-4-((2-(4-(2-amino-8-((4-(trifluoromethoxy)benzyl)oxy)-5,6-dihydrobenzo[h]quinazolin-4-yl)piperazin-1-yl)ethoxy)methyl)oxetane-2-carboxylic acid] | < 100 nM | 100 to 500 nM |
| Nc1nc2c(c(N3CCN(CCOC[C@@H]4CCC[C@H](C(=O)O)C4)CC3)n1)CCc1cc(OCc3ccc(OC(F)(F)F)cc3)ccc1-2 (relative stereo) [Example 186, cis-3-((2-(4-(2-amino-8-((4-(trifluoromethoxy)benzyl)oxy)-5,6-dihydrobenzo[h]quinazolin-4-yl)piperazin-1-yl)ethoxy)methyl)cyclohexane-1-carboxylic acid dihydrochloride] | < 100 nM | < 100 nM |
| CC(Oc1ccc2c(c1)CCc1c-2nc(N)nc1N1CCN(CCO[C@H]2C[C@@H](C(=O)O)C2)CC1)c1ccc(OC(F)(F)F)cc1 (relative stereo) [Example 209, cis-3-(2-(4-(2-amino-8-(1-(4-(trifluoromethoxy)phenyl)ethoxy)-5,6-dihydrobenzo[h]quinazolin-4-yl)piperazin-1-yl)ethoxy)cyclobutane-1-carboxylic acid] | < 100 nM | < 100 nM |
| COC(=O)COCCOCCN1CCN(c2nc(N)nc3c2CCc2cc(OCc4ccc(Cl)cc4)ccc2-3)CC1 [11(a), methyl 2-(2-(2-(4-(2-amino-8-((4-chlorobenzyl)oxy)-5,6-dihydrobenzo[h]quinazolin-4-yl)piperazin-1-yl)ethoxy)ethoxy)acetate] | < 100 nM | < 100 nM |
| COC(=O)c1cccc(COCCN2CCN(c3nc(N)nc4c3CCc3cc(OCc5ccc(Cl)cc5)ccc3-4)CC2)c1 [15(a), methyl 3-((2-(4-(2-amino-8-((4-chlorobenzyl)oxy)-5,6-dihydrobenzo[h]quinazolin-4-yl)piperazin-1-yl)ethoxy)methyl)benzoate] | < 100 nM | 100 to 500 nM |
| COC(=O)c1cccc(COCCN2CCN(c3nc(N)nc4c3CCc3cc(OCc5ccc(OC(F)(F)F)cc5)ccc3-4)CC2)c1 [16(a), methyl 3-((2-(4-(2-amino-8-((4-(trifluoromethoxy)benzyl)oxy)-5,6-dihydrobenzo[h]quinazolin-4-yl)piperazin-1-yl)ethoxy)methyl)benzoate] | < 100 nM | 100 to 500 nM |
| COC(=O)c1cc(COCCN2CCN(c3nc(N)nc4c3CCc3cc(OCc5ccc(Cl)cc5)ccc3-4)CC2)ccc1F [17(a), methyl 5-((2-(4-(2-amino-8-((4-chlorobenzyl)oxy)-5,6-dihydrobenzo[h]quinazolin-4-yl)piperazin-1-yl)ethoxy)methyl)-2-fluorobenzoate] | < 100 nM | < 100 nM |
| COC(=O)c1cccc(COCCN2CCN(c3nc(N)nc4c3CCc3cc(OCc5ccc(Cl)cc5)ccc3-4)CC2)n1 [18(a), methyl 6-((2-(4-(2-amino-8-((4-chlorobenzyl)oxy)-5,6-dihydrobenzo[h]quinazolin-4-yl)piperazin-1-yl)ethoxy)methyl)picolinate] | < 100 nM | < 100 nM |
| COC(=O)c1ccc(OCCN2CCN(c3nc(N)nc4c3CCc3cc(OCc5ccc(Cl)cc5)ccc3-4)CC2)cc1 [19(a), methyl 4-(2-(4-(2-amino-8-((4-chlorobenzyl)oxy)-5,6-dihydrobenzo[h]quinazolin-4-yl)piperazin-1-yl)ethoxy)benzoate] | 100 to 500 nM | 100 to 500 nM |
| COC(=O)c1ccc(COCCN2CCN(c3nc(N)nc4c3CCc3cc(OCc5ccc(OC(F)(F)F)cc5)ccc3-4)CC2)o1 [20(a), methyl 5-((2-(4-(2-amino-8-((4-(trifluoromethoxy)benzyl)oxy)-5,6-dihydrobenzo[h]quinazolin-4-yl)piperazin-1-yl)ethoxy)methyl)furan-2-carboxylate] | < 100 nM | 100 to 500 nM |
| CCOC(=O)[C@]1(C)C[C@@H](OCCN2CCN(c3nc(N)nc4c3CCc3cc(OCc5ccc(Cl)cc5)ccc3-4)CC2)C1 [25(a), ethyl trans-3-(2-(4-(2-amino-8-((4-chlorobenzyl)oxy)-5,6-dihydrobenzo[h]quinazolin-4-yl)piperazin-1-yl)ethoxy)-1-methylcyclobutane-1-carboxylate] | < 100 nM | 100 to 500 nM |
| C[C@]1(C(=O)O)C[C@H](OCCN2CCN(c3nc(N)nc4c3CCc3cc(OCc5ccc(Cl)cc5)ccc3-4)CC2)C1 [25(b), trans-3-(2-(4-(2-amino-8-((4-chlorobenzyl)oxy)-5,6-dihydrobenzo[h]quinazolin-4-yl)piperazin-1-yl)ethoxy)-1-methylcyclobutane-1-carboxylic acid] | < 100 nM | < 100 nM |
| CCOC(=O)[C@]1(C)C[C@H](OCCN2CCN(c3nc(N)nc4c3CCc3cc(OCc5ccc(Cl)cc5)ccc3-4)CC2)C1 [26(a), ethyl cis-3-(2-(4-(2-amino-8-((4-chlorobenzyl)oxy)-5,6-dihydrobenzo[h]quinazolin-4-yl)piperazin-1-yl)ethoxy)-1-methylcyclobutane-1-carboxylate] | < 100 nM | 100 to 500 nM |
| C[C@]1(C(=O)O)C[C@@H](OCCN2CCN(c3nc(N)nc4c3CCc3cc(OCc5ccc(Cl)cc5)ccc3-4)CC2)C1 [26(b), cis-3-(2-(4-(2-amino-8-((4-chlorobenzyl)oxy)-5,6-dihydrobenzo[h]quinazolin-4-yl)piperazin-1-yl)ethoxy)-1-methylcyclobutane-1-carboxylic acid] | < 100 nM | 100 to 500 nM |
| Nc1nc2c(c(N3CCN(CCOCC4CNC4)CC3)n1)CCc1cc(OCc3ccc(OC(F)(F)F)cc3)ccc1-2 [38(b), 4-(4-(2-(azetidin-3-ylmethoxy)ethyl)piperazin-1-yl)-8-((4-(trifluoromethoxy)benzyl)oxy)-5,6-dihydrobenzo[h]quinazolin-2-amine] | < 100 nM | < 100 nM |
| COC(=O)c1ccc(COCCN2CCN(c3nc(N)nc4c3CCc3cc(OCc5ccc(Cl)cc5)ccc3-4)CC2)o1 [127(a), methyl 5-((2-(4-(2-amino-8-((4-chlorobenzyl)oxy)-5,6-dihydrobenzo[h]quinazolin-4-yl)piperazin-1-yl)ethoxy)methyl)furan-2-carboxylate] | < 100 nM | < 100 nM |
